Test results from patent US4983740A, “Process for 1,4-dihydropyridine compounds” (Adir et Compagnie, priority 1986, dated 1991).

Assays:
rat aorta = assay: In vitro activity in rat aorta stimulated by potassium ions; type: cell-based, rat (male Wistar); conditions: 1 h; rat aorta rings, KCl 80 mM stimulation, cumulative doses at 60 minutes intervals
[1] = test system: conscious dogs with renal hypertension; assay: Study in conscious dogs with renal hypertension (oral, mean arterial pressure); type: in vivo, dog (Mongol); conditions: digestive route
Excerpt: Study in Conscious Dogs with Renal Hypertension
Mongol dogs weighing 20 to 25 kg are used. A Silastic® catheter, inserted under anesthesia at the level of the abdominal aorta, left in position permanently, enables the arterial pressure to be determined subsequently in the conscious animal.
Arterial hypertension is induced by a second operation, under anesthesia, consisting in constricting the left renal artery with a clip, decreasing the flow rate therein by approximately 70%, the left kidney is also covered with a latex capsule in order to restrict circulatory compensations; the contralateral kidney is left in position.
The systolic, diastolic and mean arterial pressures are determined with a Statham® P23 pressure sensor attached to the Silastic® catheter and connected to a Gould® "pressure-processor". The compounds are tested in animals which became hypertensive in the conscious state at least one week after the second operation. The arterial pressure is continuously recorded up to 7 hours after the treatment and then at 24 hours.
The compounds to be tested are administered by the digestive route through gastric tubing, in the form of a solution which may be aqueous, aqueous/alcoholic and the like, depending on the solubility of the products.
The doses administered are expressed in mg base per body weight kg.

[2] = test system: conscious spontaneous hypertensive rats (SHR); assay: Short-term studies in conscious spontaneous hypertensive rats (oral, systolic arterial pressure); type: in vivo, rat (SHR)
Description: Short-term Studies in Conscious Spontaneous Hypertensive Rats (SHR)
Male spontaneous hypertensive rats weighing 270 to 320 g, aged 16 to 24 weeks, are anesthetized with ether. A polyethylene catheter is introduced into the femoral artery and moved forward to the level of the tail. The pressure in the femoral artery is recorded with a Statham® P23 sensor, on a Gould® 2400 recorder. The animals are treated at least one hour after the operation. The compounds are administered orally, in the dissolved form. The doses administered are expressed in mg/kg of base. The compounds of the invention were compared with amlodipine and with another 1,4-dihydropyridine derivative reference compound, nifedipine.

[3] = test system: conscious spontaneous hypertensive rats (SHR); assay: Long-term studies in conscious spontaneous hypertensive rats (oral, single daily dose, systolic arterial pressure); type: in vivo, rat (SHR); conditions: 1 mg/kg/d
Description: Long-term Studies in Conscious Spontaneous Hypertensive rats (SHR) Male rats weighing 280 to 300 g, aged 16 weeks, are used in this study. The systolic arterial pressure is determined with a Rhema multichannel 8,000® apparatus, according to the indirect method, at the tail of the animal. The compounds to be tested are administered orally, in a single daily dose. Determinations of arterial pressure are carried out each day just before the treatment. Amlodipine was also studied under the same conditions.

[4] = target: T1, dihydropyridine site associated with the calcium slow channel (Rattus norvegicus, UniProt Q02485); assay: Affinity for the dihydropyridine binding site, displacement of [3H]-PN 200-110; design: species or system rat (Wistar); conditions: for Ki: displacement of [3H]-PN 200-110, microsomal membranes of rat skeletal muscle
T1 construct: microsomal membrane preparations prepared from skeletal muscle of rat (Wistar) hind limbs; from tissue; host or cells: skeletal muscle of rat (Wistar) hind limbs, microsomal fraction
T1 sequence (Q02485 whole entry): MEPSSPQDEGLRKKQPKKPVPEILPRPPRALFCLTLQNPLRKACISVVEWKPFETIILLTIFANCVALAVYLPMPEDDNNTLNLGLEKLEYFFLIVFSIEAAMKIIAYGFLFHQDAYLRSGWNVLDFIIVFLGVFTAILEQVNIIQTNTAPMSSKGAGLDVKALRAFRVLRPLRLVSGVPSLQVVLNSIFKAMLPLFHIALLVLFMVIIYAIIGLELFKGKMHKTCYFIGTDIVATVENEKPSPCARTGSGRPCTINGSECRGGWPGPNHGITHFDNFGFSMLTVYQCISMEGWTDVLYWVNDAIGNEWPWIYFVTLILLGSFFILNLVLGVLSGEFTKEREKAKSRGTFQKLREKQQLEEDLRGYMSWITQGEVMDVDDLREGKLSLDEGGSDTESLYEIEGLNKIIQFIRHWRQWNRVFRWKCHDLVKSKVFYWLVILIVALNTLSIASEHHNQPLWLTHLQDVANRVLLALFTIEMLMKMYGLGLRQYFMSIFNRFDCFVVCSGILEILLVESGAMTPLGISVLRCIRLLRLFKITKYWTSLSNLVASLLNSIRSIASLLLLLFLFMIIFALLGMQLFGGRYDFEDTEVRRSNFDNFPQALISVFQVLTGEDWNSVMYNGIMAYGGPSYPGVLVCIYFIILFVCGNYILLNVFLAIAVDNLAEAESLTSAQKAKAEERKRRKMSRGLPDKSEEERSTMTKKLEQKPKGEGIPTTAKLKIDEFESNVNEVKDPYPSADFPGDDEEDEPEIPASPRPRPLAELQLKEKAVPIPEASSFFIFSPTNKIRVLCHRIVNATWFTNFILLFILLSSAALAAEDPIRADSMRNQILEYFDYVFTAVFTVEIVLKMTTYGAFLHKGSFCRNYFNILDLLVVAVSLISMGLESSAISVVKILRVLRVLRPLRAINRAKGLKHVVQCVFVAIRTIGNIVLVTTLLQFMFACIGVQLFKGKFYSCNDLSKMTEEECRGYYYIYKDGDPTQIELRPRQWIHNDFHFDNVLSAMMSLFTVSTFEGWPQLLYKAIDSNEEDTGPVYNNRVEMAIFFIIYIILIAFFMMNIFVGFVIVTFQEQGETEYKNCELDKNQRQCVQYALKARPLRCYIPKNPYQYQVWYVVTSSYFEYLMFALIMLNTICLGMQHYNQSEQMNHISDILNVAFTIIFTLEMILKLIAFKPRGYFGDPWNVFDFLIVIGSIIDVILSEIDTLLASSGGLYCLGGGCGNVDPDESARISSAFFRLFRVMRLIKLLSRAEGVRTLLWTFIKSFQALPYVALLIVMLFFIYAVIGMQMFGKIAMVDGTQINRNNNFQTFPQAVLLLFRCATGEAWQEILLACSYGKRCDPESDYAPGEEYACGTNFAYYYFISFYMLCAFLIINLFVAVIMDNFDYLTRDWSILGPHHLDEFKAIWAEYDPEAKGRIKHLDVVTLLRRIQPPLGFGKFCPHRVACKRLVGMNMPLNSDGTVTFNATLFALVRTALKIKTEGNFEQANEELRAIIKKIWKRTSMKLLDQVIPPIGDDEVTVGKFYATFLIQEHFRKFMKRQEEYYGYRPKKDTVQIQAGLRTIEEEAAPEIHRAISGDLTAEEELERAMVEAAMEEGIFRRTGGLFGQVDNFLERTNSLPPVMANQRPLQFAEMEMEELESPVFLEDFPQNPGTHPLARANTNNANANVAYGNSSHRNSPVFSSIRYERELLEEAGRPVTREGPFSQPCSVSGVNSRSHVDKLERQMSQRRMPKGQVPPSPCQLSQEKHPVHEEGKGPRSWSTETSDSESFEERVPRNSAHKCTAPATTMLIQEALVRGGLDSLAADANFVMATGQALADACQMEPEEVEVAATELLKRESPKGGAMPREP
T1 sequence (P54290 25-945 partner limits assumed): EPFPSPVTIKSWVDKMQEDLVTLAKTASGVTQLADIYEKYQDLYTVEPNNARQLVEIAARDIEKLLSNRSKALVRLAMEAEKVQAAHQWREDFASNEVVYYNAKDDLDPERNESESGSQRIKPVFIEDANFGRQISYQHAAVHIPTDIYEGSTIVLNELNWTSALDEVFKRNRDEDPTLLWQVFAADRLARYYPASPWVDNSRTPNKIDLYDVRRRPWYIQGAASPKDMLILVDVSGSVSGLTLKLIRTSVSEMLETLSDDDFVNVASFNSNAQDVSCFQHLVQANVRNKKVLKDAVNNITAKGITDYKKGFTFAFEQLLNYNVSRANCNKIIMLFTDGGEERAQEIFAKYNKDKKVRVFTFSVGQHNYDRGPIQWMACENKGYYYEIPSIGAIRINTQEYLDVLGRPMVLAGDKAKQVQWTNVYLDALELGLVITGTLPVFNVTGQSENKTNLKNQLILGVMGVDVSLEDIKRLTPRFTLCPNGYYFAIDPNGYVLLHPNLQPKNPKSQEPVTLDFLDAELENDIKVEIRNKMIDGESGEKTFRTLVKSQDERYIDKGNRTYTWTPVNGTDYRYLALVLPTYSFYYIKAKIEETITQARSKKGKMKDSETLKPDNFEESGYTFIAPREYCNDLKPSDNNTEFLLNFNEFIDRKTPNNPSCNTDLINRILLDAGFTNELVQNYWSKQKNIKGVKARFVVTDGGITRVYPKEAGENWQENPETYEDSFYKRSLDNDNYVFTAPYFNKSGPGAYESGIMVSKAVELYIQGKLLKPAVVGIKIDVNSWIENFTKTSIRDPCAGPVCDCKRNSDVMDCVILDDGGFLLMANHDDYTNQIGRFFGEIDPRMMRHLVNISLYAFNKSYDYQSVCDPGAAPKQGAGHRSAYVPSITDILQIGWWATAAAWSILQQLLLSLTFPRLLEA
T1 sequence (P54290 946-1091 partner limits assumed): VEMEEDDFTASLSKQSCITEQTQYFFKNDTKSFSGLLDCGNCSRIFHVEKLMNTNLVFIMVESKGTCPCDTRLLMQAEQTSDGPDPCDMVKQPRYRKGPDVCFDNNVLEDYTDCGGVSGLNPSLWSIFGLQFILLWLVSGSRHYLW
T1 sequence (P54283 whole entry partner): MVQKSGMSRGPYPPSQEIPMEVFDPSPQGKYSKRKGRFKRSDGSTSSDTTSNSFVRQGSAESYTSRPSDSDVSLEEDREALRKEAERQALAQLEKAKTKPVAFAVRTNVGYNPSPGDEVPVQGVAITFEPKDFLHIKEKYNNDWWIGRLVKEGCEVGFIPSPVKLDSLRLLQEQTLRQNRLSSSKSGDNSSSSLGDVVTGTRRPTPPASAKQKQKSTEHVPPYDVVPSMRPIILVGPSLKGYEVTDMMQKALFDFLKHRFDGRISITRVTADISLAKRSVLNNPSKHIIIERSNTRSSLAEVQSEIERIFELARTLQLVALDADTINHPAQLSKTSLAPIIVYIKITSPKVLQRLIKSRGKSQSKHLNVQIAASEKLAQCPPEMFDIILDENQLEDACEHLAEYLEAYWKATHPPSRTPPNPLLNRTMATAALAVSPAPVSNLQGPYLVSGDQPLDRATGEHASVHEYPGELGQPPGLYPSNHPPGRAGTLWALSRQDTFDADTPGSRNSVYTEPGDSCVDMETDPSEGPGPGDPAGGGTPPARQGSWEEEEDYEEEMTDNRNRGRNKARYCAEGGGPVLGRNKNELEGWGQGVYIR
T1 sequence (P97707 whole entry partner): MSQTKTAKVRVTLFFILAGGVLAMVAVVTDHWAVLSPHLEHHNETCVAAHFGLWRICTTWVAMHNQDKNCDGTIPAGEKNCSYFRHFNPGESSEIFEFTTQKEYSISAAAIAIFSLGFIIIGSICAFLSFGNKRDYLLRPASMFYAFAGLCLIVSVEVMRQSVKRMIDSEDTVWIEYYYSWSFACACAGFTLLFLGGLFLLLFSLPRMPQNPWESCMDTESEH
Description: Affinity for the Dihydropyridine Binding Site
This study was carried out on microsomal membrane preparations prepared from skeletal muscle of rat (Wistar) hind limbs.
The rats are killed by decapitation. The skeletal muscles are removed and washed in buffer I (20 mM MOPS/KOH pH 7.4, 0.3M sucrose, 1 mM EDTA, 0.1 mM iodoacetamide, 1 μM pepstatin A, 1 mg/l leupeptin and 0.1 μM PMSF). The muscles are then mechanically fragmented, taken up in 4 volumes of buffer I per gramme of tissue and homogenized.
The homogenate is then centrifuged for 10 minutes at 3,200 g, the pellets are removed and the supernatants are then centrifuged for 20 minutes at 15,000 g, and the supernatants are stirred for 15 minutes at 4° C. in buffer I containing 0.6M final KCl and then centrifgued for 45 minutes at 70,000 g.
The pellets are taken up in buffer I and homogenized in a Potter. The homogenates are centrifuged at 100,000 g for 45 minutes and the pellets thereby obtained correspond to the microsomal fraction used for the studies of binding and displacement.
The activity of the product is assessed by the displacement of [^3 H]-PN 200-110, bound specifically to its receptor associated with the calcium slow channel, by increasing concentrations of the test products. The value obtained (K0.5) for each of the products, which represents the concentration of the product displacing 50% of the [^3 H]-PN 200-110, permits calculation of a true dissociation constant (KI): [formula] where [L*] is the concentration of free [^3 H]-PN 200-110 and Kd the dissociation constant at equilibrium of the [^3 H]-PN 200-110 complex, determined by direct binding.
The KI values of the two products are recorded in Table VI

[5] = test system: unanesthetized spontaneously hypertensive rats (SHR); assay: Study in unanesthetized spontaneously hypertensive rats (intravenous, systolic blood pressure); type: in vivo, rat (SHR); conditions: for Systolic blood pressure changes (ΔmmHg) after treatment, 1H 30 min / Systolic blood pressure changes (ΔmmHg) after treatment, 3H / Systolic blood pressure changes (ΔmmHg) after treatment, 6H: 0.1 mg/kg, intravenous
Description: Study in Unanesthetized Spontaneously Hypertensive Rats (SHR)
SHR male rats weighing 280 to 350 g and aged from 18 to 24 weeks are anaesthetized with imalgene® (150 mg/kg i.p.). Two polyethylene catheters are introduced, one into the abdominal aorta for the recording of hemodynamic parameters and the other into the jugular vein for the administration of the products. The catheters are taken through to neck level. The animals are used at least 48 hours after surgical intervention.
The systolic and diastolic abdominal bood pressures are recorded by means of a Statham P23XL transducer on a Gould ES 1000 recorder. The products are administered intravenously in a volume of 0.5 ml/kg. The doses administered of the test compounds are expressed in mg/kg of base. The blood pressure is recorded in continuous fashion up to 6 hours after the treatment.
The changes in systolic blood pressure after treatment are recorded in Table VIII.

[6] = target: isolated rabbit mesenteric artery (Oryctolagus cuniculus, UniProt P15381); assay: Study on isolated rabbit mesenteric artery contracted with calcium; type: cell-based, rabbit (New Zealand); conditions: compound of example 50 versus its racemate
Description: Study on Isolated Rabbit Mesenteric Artery Contracted with Calcium
This test is performed on organs removed from male New Zealand rabbits weighing 2.5 to 3 kg, subjected to a water regimen for 18 hours before sacrifice.
After the animal is rapidly sacrificed, the mesenteric artery is removed and dissected into rings 2 mm long; the endothelium is removed mechanically.
After a stabilization period of 90 minutes, the preparations are subjected to a depolarizing medium (35 mM KCl) without calcium (0.1 mM EGTA) for 15 minutes.
A control series is prepared by adding cumulative doses of calcium to the bath every 6 minutes until a maximum of effect is produced. The preparations are then rinsed for a period of 15 minutes and the product is incubated for one hour before renewal of the calcium series.
A single concentration of the product is tested per organ.
The responses obtained in the presence of product are expressed as a percentage of the maximal value of the control series.
The pD'2 value is calculated according to the method of Van Rossum (1963).

## CCOC(=O)C1=C(COCCOCCN)NC(C)=C(C(=O)OC)C1c1cccc(Cl)c1Cl (racemic) [EXAMPLE 6, (4R,S)-2-{[2-(2-Aminoethoxy)ethoxy]methyl}-4-(2,3-dichlorophenyl)-3-ethoxycarbonyl-5-methoxycarbonyl-6-methyl-1,4-dihydropyridine]
Rat aorta
  IC50: 5 nM
[1]; 0.5 mg/kg
  Mean arterial pressure after treatment, Δ mm Hg, 4 h: -20 mm Hg
  Mean arterial pressure after treatment, Δ mm Hg, 7 h: -29 mm Hg
  Mean arterial pressure after treatment, Δ mm Hg, 24 h: -11 mm Hg
[1]; 1.0 mg/kg
  Mean arterial pressure after treatment, Δ mm Hg, 4 h: -40 mm Hg
  Mean arterial pressure after treatment, Δ mm Hg, 7 h: -44 mm Hg
  Mean arterial pressure after treatment, Δ mm Hg, 24 h: -49 mm Hg
[2]; 1 mg/kg
  Systolic arterial pressure after treatment, Δ mm Hg, 4 h: -14 mm Hg
  Systolic arterial pressure after treatment, Δ mm Hg, 6 h: -17 mm Hg
  Systolic arterial pressure after treatment, Δ mm Hg, 24 h: -17 mm Hg
[2]; 3 mg/kg
  Systolic arterial pressure after treatment, Δ mm Hg, 4 h: -52 mm Hg
  Systolic arterial pressure after treatment, Δ mm Hg, 6 h: -55 mm Hg
  Systolic arterial pressure after treatment, Δ mm Hg, 24 h: -36 mm Hg
[3]; day 1
  Systolic arterial pressure Δ(mm Hg) 24 h after the last administration of the products, D1: -22 mm Hg
[3]; day 2
  Systolic arterial pressure Δ(mm Hg) 24 h after the last administration of the products, D2: -18 mm Hg
[3]; day 4
  Systolic arterial pressure Δ(mm Hg) 24 h after the last administration of the products, D4: -17 mm Hg
[3]; day 7
  Systolic arterial pressure Δ(mm Hg) 24 h after the last administration of the products, D7: -31 mm Hg
[4]
  Ki: 8.2 ± 1.7 nM
[5]
  Systolic blood pressure changes (ΔmmHg) after treatment, 1H 30 min: -11 ± 3 mmHg
  Systolic blood pressure changes (ΔmmHg) after treatment, 3H: -5 ± 3 mmHg
  Systolic blood pressure changes (ΔmmHg) after treatment, 6H: -5 ± 2 mmHg

## CCOC(=O)C1=C(COCCOCCN)NC(C)=C(C(=O)OC)C1c1cccc(Cl)c1Cl (single isomer, unassigned; (-)) [EXAMPLE 50, (-)-2-{[2-(2-Aminoethoxy)ethoxy]methyl}-4-(2,3-dichlorophenyl)-3-ethoxycarbonyl-5-methoxycarbonyl-6-methyl-1,4-dihydropyridine]
[4]; compound of example 50 versus its racemate
  affinity for the dihydropyridine sites compared with its racemate: 30 times
[4]
  Ki: 0.28 ± 0.15 nM
[6]
  superiority compared with its racemate in preventing a calcium-induced vascular contraction: more than double
[5]
  Systolic blood pressure changes (ΔmmHg) after treatment, 1H 30 min: -16 ± 2 mmHg
  Systolic blood pressure changes (ΔmmHg) after treatment, 3H: -18 ± 2 mmHg
  Systolic blood pressure changes (ΔmmHg) after treatment, 6H: -21 ± 5 mmHg
[5]; same dose, six hours after treatment, versus racemate
  activity compared with its racemate six hours after treatment: approximately 4 times
[5]; versus racemate
  activity compared with its racemate, in words: more potent and sustained even better over a period of time
